Structures can show the parent of a compound that is named as a salt.
Tested on: Male Zucker diabetic fatty (ZDF) rats
Assay: Test Example 1: elimination of blood lactate after intravenous sodium lactate load (blood lactate AUC 0 to 60 minutes)
Format: in vivo
Settings: sodium lactate 0.1 g/kg i.v., FIG. 1
Protocol: The animals of Group B and Group B+A were given free access for 1 week to Compound B mixed in powdered feed (FR-2 Powdered Laboratory Rodent Diet, Funabashi Farm Co., Ltd.) to a concentration of 0.001%. Animals of the control group and Group A were given free access to powdered feed for the same time period.
All animals were administered sodium lactate at 0.1 g/kg into the caudal vein one hour after oral administration. Blood samples were collected from the caudal vein immediately before and 5, 15, 30, 45 and 60 minutes after administration of sodium lactate, and blood lactate levels were measured using the Lactate Pro LT-1710 (Arkray, Inc.). The areas under the curve for blood lactate concentration (blood lactate AUC) were calculated from blood lactate levels from 0 to 60 minutes measured for each animal. A lower blood lactate AUC value indicates a more rapid elimination of lactate from the blood.

Q: `COc1ccc2nc(COc3ccc(CC4SC(=O)NC4=O)cc3)n(C)c2c1` (centres unmarked) [Compound B, 5-{4-[(6-methoxy-1-methyl-1H-benzimidazol-2-yl)methoxy]benzyl}thiazolidine-2,4-dione hydrochloride] was tested. Which “blood lactate AUC” value (Group B+A: Compound B 0.001% in feed for 1 week, then Compound A 300 mg/kg oral, relative to Group A (P<0.05, t-test)) did it give?
A: The value was “decreased significantly”.

Q: What about the “blood lactate AUC” value (Group B: Compound B 0.001% in powdered feed for 1 week, alone, compared with control group (P<0.05, t-test)) of the same compound?
A: Its value is “decreased significantly”.

From US20090137626A1, “Pharmaceutical Composition Containing PPARgamma Agonist” (priority 2005, published 2009)
